Measurements from paper PMC8009520, “Exploration of TRPM8 Binding Sites by β-Carboline-Based Antagonists and Their In Vitro Characterization and In Vivo Analgesic Activities” (Journal of Medicinal Chemistry, 2020).
Like-named read-outs stand apart in the source and are kept apart here.

Legend:
[1] = biological target: T1, rat isoform of TRPM8 channels (Rattus norvegicus, UniProt Q8R455); experiment: Ca2+ fluorimetric assay, menthol-activated channel; assay type: cell-based
T1 construct: expressed in transfected cells
T1 sequence (Q8R455 whole entry, canonical isoform): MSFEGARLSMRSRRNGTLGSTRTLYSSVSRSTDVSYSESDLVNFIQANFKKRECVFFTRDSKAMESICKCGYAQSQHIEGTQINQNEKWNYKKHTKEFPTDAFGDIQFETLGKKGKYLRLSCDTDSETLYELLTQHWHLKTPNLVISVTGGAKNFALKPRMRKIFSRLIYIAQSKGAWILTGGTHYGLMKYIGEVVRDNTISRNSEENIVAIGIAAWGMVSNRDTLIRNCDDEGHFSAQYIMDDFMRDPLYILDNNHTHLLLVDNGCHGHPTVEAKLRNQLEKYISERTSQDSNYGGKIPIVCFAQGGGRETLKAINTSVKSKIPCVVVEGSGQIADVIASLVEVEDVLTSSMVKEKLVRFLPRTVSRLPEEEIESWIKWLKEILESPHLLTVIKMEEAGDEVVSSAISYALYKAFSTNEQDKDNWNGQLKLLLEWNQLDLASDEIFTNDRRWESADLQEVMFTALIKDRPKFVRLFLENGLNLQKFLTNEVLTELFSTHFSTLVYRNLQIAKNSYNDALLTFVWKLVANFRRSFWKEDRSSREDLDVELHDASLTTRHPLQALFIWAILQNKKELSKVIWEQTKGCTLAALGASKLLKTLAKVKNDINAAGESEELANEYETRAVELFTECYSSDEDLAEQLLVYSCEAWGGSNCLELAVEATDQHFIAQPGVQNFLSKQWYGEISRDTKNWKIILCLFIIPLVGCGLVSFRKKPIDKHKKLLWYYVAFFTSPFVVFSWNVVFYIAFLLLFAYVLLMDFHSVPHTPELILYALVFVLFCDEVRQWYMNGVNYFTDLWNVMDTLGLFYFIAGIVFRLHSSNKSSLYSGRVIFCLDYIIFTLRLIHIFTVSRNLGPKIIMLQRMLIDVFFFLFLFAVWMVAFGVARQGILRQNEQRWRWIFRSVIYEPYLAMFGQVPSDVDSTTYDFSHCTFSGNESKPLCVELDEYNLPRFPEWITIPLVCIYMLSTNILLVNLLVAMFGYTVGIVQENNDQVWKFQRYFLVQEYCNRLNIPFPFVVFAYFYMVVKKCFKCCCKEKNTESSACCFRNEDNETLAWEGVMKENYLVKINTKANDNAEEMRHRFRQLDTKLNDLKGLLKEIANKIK
Description: TRPM8 blocker activity of all synthesized compounds was tested by Ca^2+ fluorimetric assays using HEK-293 cells stably expressing the rat isoform of TRPM8 channels, using menthol and AMTB as prototypical agonist and antagonist, respectively.
For measurement of the potency of the compounds, fluorimetric experiments were performed using HEK-293 cells (CRL-1573TM, American Type Culture Collection, LGC Promochem, Molsheim, France) that stably express rat TRPM8. The cells were seeded in 96-well plates (Corning Incorporated, Corning, NY) at a cell density of 40 000 cells 2 days before treatment. On the day of treatment, the medium was replaced with 100 μL of the dye loading solution Fluo-4 NW supplemented with probenecid 2.5 mM.
The tested molecules dissolved in DMSO were added at the desired concentrations, and the plates were incubated in darkness at 37 °C in a humidified atmosphere of 5% CO2 for 60 min. The fluorescence was measured using instrument settings appropriate for excitation at 485 nm and emission at 535 nm (POLARstar Omega BMG LABtech). A baseline recording of four cycles was recorded prior to stimulation with the agonist (100 μM menthol for TRPM8). The TRPM8 antagonist, 10 μM AMTB, was added to the medium containing the corresponding agonist to induce channel blockade. The changes in fluorescence intensity were recorded during 15 cycles more. The higher concentration of DMSO used in the experiment was added to the control wells. The cells’ fluorescence was measured before and after the addition of various concentrations of test compounds. The fluorescence values obtained are normalized to that prompted by the corresponding agonist (for channel activating compounds) or upon agonist and antagonist coexposure (for channel blocker compounds).

human TRPM8 [2] = biological target: T2, human TRPM8 (Homo sapiens, UniProt Q7Z2W7); conditions: HEK-293 cells expressing human TRPM8, compound 300 nM
T2 sequence (Q7Z2W7 whole entry): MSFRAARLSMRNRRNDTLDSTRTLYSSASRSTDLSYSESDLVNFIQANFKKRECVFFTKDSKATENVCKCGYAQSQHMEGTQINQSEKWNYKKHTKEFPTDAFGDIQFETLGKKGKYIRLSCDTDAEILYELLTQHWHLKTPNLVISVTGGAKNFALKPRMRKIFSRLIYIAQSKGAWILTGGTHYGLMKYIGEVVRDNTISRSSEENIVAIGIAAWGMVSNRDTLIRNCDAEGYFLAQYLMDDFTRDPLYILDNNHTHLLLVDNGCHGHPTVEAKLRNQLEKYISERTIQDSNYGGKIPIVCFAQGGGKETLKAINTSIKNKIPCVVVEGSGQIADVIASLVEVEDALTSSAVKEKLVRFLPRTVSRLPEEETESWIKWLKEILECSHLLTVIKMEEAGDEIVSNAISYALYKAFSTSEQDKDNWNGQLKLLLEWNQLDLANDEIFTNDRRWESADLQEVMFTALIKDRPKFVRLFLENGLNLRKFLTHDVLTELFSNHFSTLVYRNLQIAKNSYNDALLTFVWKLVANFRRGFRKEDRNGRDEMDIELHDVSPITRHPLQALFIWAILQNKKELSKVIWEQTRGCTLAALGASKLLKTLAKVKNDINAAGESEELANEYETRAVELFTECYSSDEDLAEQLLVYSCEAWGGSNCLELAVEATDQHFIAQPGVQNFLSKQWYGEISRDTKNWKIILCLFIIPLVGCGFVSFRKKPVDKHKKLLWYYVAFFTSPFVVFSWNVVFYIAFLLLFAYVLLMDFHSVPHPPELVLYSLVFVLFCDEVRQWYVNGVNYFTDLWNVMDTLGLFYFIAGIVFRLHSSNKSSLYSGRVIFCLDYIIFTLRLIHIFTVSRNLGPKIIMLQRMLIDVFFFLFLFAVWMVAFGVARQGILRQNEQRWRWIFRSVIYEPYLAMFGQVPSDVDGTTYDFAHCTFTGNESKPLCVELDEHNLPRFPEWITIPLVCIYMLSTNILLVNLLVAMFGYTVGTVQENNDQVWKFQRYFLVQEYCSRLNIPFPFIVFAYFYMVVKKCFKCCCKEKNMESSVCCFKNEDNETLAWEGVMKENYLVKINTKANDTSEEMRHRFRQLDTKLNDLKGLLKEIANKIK

human TRPM8 [3] = biological target: T2, human TRPM8; experiment: cell-based; conditions: HEK293, read-out: % Inhibition 300 μM menthol-evoked currents at 300 nM compounds, HEK-293 cells expressing human TRPM8, compound 300 nM
TRPM8 = system: TRPM8; parameters: method as in PMID 26847872, PMID 25125580; conditions: patch-clamp recordings; 18b; cited from earlier work
hTRPV1 = biological target: T3, hTRPV1 (Homo sapiens, UniProt Q8NER1); experiment: Selectivity fluorimetric assay, CHO-K1 cells; assay type: cell-based; conditions: capsaicine as reference agonist
T3 construct: expressed in transfected cells; host or cells: CHO-K1, stably transfected
T3 sequence (Q8NER1 whole entry): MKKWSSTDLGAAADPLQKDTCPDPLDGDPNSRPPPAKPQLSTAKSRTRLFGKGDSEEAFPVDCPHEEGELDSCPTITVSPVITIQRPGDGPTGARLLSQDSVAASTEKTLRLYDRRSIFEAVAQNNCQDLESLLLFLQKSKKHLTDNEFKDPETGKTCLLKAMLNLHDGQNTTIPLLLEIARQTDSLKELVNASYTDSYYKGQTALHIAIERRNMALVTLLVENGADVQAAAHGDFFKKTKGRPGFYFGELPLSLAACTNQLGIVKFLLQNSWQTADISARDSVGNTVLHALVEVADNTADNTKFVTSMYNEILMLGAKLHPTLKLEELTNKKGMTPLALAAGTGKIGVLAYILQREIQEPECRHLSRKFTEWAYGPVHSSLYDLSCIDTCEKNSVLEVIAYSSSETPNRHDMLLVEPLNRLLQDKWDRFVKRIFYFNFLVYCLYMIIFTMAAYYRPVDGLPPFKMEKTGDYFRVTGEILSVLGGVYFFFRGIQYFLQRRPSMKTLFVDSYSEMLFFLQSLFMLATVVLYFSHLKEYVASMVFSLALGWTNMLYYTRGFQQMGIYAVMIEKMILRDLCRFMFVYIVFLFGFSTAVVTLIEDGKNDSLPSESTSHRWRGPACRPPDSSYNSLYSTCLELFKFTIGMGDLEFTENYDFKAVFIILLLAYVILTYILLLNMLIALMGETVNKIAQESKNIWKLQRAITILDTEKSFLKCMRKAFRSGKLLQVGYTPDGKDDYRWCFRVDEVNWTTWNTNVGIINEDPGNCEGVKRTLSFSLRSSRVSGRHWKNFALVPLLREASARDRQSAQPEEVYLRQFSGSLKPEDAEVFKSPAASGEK

hTRPA1 = biological target: T4, hTRPA1 (Homo sapiens, UniProt O75762); experiment: Selectivity fluorimetric assay, HEK-293 cells; assay type: cell-based; conditions: AITC as reference agonist
T4 construct: expressed in transfected cells; host or cells: HEK-293, stably transfected

hNav1.7 = biological target: T5, hNav1.7 (Homo sapiens, UniProt Q15858); experiment: Selectivity fluorimetric assay, HEK-293 cells; assay type: cell-based; conditions: veratridine as reference agonist
T5 construct: expressed in transfected cells; host or cells: HEK-293, stably transfected
T5 sequence (Q15858 whole entry): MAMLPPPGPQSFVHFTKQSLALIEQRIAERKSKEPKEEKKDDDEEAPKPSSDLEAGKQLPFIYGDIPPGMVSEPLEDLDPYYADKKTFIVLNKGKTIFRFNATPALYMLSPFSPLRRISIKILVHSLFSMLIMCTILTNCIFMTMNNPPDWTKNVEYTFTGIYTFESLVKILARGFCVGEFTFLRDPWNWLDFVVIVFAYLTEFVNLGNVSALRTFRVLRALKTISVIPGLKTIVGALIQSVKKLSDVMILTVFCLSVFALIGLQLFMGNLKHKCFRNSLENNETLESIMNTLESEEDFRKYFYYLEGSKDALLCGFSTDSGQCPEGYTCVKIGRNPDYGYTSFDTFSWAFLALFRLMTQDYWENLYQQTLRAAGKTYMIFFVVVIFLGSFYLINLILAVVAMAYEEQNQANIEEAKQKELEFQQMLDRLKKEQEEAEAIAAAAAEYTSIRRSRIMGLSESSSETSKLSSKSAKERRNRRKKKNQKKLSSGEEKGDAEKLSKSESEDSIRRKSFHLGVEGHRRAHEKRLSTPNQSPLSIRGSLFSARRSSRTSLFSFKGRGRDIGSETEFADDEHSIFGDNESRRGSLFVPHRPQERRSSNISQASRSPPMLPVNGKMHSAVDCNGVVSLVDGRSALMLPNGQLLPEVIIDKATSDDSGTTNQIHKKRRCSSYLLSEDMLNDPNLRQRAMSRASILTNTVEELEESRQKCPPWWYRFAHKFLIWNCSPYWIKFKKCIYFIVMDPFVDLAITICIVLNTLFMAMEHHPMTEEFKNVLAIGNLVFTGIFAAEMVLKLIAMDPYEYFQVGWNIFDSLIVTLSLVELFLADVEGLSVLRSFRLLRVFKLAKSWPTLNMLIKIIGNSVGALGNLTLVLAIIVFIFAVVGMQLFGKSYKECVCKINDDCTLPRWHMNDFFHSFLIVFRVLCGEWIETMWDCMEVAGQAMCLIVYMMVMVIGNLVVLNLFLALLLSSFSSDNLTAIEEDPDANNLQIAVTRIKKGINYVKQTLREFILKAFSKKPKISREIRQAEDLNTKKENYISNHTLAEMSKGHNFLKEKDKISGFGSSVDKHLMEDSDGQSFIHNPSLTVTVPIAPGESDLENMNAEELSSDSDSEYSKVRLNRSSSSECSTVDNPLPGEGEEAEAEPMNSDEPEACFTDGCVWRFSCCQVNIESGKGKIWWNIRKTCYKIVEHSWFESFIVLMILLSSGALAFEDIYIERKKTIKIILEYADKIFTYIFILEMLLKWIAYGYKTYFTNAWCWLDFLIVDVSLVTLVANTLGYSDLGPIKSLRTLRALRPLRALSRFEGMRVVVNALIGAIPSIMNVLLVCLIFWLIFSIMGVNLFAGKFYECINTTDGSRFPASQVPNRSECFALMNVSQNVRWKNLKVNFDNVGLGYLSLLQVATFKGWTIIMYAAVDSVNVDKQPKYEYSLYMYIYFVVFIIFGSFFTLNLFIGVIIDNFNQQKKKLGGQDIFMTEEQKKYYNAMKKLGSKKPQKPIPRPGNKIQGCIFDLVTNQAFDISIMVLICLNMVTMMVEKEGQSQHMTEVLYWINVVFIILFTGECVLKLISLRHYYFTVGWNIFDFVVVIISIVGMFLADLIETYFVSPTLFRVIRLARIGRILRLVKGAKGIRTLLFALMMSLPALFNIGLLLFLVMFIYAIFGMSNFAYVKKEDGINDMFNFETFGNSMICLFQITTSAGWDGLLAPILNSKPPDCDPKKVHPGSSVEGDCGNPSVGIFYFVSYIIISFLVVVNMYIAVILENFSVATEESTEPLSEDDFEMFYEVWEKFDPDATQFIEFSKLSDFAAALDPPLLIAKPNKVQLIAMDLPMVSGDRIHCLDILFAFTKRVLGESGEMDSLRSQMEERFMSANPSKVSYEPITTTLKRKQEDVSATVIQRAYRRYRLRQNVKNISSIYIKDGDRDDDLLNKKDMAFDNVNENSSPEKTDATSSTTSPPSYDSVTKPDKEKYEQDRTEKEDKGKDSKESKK

[4] = In vitro metabolic stability using liver microsomes; assay type: in vitro ADME, human; conditions: protocol II, NADPH and UDP-GlcUA, 37 °C, 60 min
Description: Compound 4 was used as reference, considering that its main pitfall was represented by metabolic instability that the newly synthesized compounds were aimed in overcoming. […] Each sample (2.5 mM) was incubated with 100 mM phosphate buffer (pH 7.4) and 20 mg/mL of liver microsomes (Thermo Fisher Scientific, Bremen, Germany). After preincubation in water bath for 5 min, the mixture was incubated with 20 mM NADPH (protocol I) at 37 °C for 60 min in a Thermomixer comfort (Eppendorf, Hamburg, Germany). For the measurement of UGT activity the microsomes were preincubated with alamethicin, which forms pores in microsomal membranes, promoting access of substrate and cofactor to UGT enzymes. Subsequently, each sample was incubated with 100 mM phosphate buffer, 500 mM magnesium chloride, 10 mM NADPH, and 20 mM UDP-GlcUA at 37 °C for 60 min. Finally, the reactions from both protocols (protocols I and II) were stopped by the addition of 200 μL of ice-cold methanol, and then samples were centrifuged at 10 000 rpm at 25 °C for 5 min (Eppendorf microcentrifuge 5424, Hamburg, Germany). The supernatants were collected and injected in UHPLC-PDA. The control at 0 min was obtained by addition of the organic solvent immediately after incubation with microsomes. […] The extent of metabolism is expressed as a percentage of the parent compound turnover using the following equation, as previously described:[43] […]

C57/BL6 mice = experiment: Oxaliplatin-induced cold allodynia, acetone drop method; assay type: in vivo
Description: This effect was still evident 30 min after administration of a 30 μg dose (Figure 6).
Data are given as the mean ± SEM n = 6. Statistical analysis was two-way ANOVA followed by post hoc Bonferroni test by multiple comparison: ***p < 0.001, ****p < 0.0001.
For the oxaliplatin-induced neuropathic pain assay, oxaliplatin (Tocris) was dissolved in water with gentle warming and was subcutaneously (sc) injected on days 1, 3, and 5 at a 6 mg/kg dose. The day 7 after administration, experiments were performed. Together with oxaliplatin injection, saline and a 5% mannitol solution were intraperitoneally injected to prevent kidney damage and dehydration. 31a stock was prepared in DMSO (Sigma-Aldrich) and diluted in saline for injections.
Cold chemical thermal sensitivity was assessed using acetone drop method.[18b] Mice were placed in a metal mesh cage and allowed to habituate for approximately 30 min in order to acclimatize them. Freshly dispensed acetone drop (10 μL) was applied gently onto the mid-plantar surface of the hind paw. Cold chemical sensitive reaction with respect to paw licking was recorded as a positive response (nociceptive pain response). The responses were measured for 20 s with a digital stopwatch. For each measurement, the paw was sampled twice and the mean was calculated. The interval between each application of acetone was approximately 5 min.

Swiss CD1 mice = experiment: CCI neuropathic pain model, thermal gradient ring; assay type: in vivo
From the text: Further we investigated the efficacy of 31a in a chronic constriction injury (CCI) model of neuropathic pain, using a thermal gradient ring assay. This assay deeply differs from the canonical reflexive measures of nociception, in which the end point is withdrawal to a noxious stimulus, a fact that has been questioned during the past years for their unsatisfactory translation.[34] In particular, this test integrates information on temperature perception distinguishing exploratory behavior from thermal preference behavior.[35a]
The mean temperature to which the sham animal located during the observation time was 27.9 °C ± 0.35 °C (Figure 7A), and no statistical differences were evidenced at the different time points (Figure 7B). […] It is questionable why this transient effect was recorded, but it must be considered that TRPM8 antagonists are able to decrease the body temperature.
Neuropathic pain behavior was induced by ligation of the sciatic nerve as described previously.[27d] […] Drug effects were evaluated 7 and 14 days after ligation.
We utilized the thermal gradient ring from Ugo-Basile previously using a modified protocol from Touska et al., 2016.[35] […] On day 2, mice were injected and 30 min after were placed in the apparatus and measured for 60 min using 15–40 °C. […]

[5] = HEK-293 cells stably expressing rat TRPM8, menthol as agonist, mean ± SD of at least three measurements, read-out: IC50
[6] = Table 2, Ca2+ fluorimetric assay, read-out: IC50 Ca2+

Row | Structure (SMILES) | IC50 [1, 5] | IC50 [1, 6] | % Inhibition 300 μM menthol-evoked currents at 300 nM compounds (human TRPM8 [2]) | inhibition at 0.3 µM (human TRPM8 [3]) | IC50 (TRPM8) | rTRPM8 IC50 (calcium microfluorimetric assays) ([1]; supplementary xlsx) | activity as agonist or antagonist on TRPV1 (hTRPV1) | activity as agonist or antagonist on TRPA1 (hTRPA1) | activity as agonist or antagonist on Nav1.7 (hNav1.7) | metabolic turnover, phase I + phase II [4] | inhibition of OXP-induced cold allodynia (paw licking) (C57/BL6 mice; 1 μg sc, single administration) | inhibition of OXP-induced cold allodynia (paw licking) (C57/BL6 mice; 10 μg sc) | inhibition of OXP-induced cold allodynia (paw licking) (C57/BL6 mice; 30 μg sc) | inhibition of OXP-induced cold allodynia 30 min after administration (C57/BL6 mice; 30 μg sc, 30 min) | time of maximum inhibitory effect (C57/BL6 mice; 10 and 30 μg sc) | mean preferred temperature (Swiss CD1 mice; CCI mice 14 days after ligation, 11.5 mg/kg ip, gradient 15-40 °C) | effect on temperature preferences (Swiss CD1 mice; sham-mice)
1 | O=C(O)CC[C@H]1N[C@H](C(=O)NCc2ccc(F)cc2)Cc2c1[nH]c1ccccc21 [12a, 3-((1R,3S)-3-((4-Fluorobenzyl)carbamoyl)-2,3,4,9-tetrahydro-1H-pyrido[3,4-b]indol-1-yl)propanoic Acid] | 5 ± 1.2 µM | 5 ± 1.2 µM | 34.1±9.6% | 34% | – | – | – | – | – | – | – | – | – | – | – | – | –
2 | c1ccc(CN(CCc2c[nH]c3ccccc23)Cc2ccccc2)cc1 [compound 3] | – | – | – | – | 367 nM | – | – | – | – | – | – | – | – | – | – | – | –
3 | O=C1[C@@H]2Cc3c([nH]c4ccccc34)[C@@H](c3ccc(Cl)cc3)N2C(=O)N1Cc1ccc(F)cc1 [31a, (5R,11aS)-5-(4-Chlorophenyl)-2-(4-fluorobenzyl)-5,6,11,11a-tetrahydro-1H-imidazo[1′,5′:1,6]pyrido[3,4-b]indole-1,3(2H)-dione] | 0.5 ± 0.3 µM | >30 µM | – | – | – | > 30 µM | no activity as agonists or antagonists | no activity as agonists or antagonists | no activity as agonists or antagonists | 46.0 ± 2.3% | not effective | remarkable inhibitory effect | remarkable inhibitory effect | still evident | 15 min | 33.30 °C | No effects
